This is an account of results in patent publication US20260015599A1, “TARGETING THE STING1 GENE BY CRISPR ACTIVATION” (AARHUS UNIVERSITET, priority 2022, published 2026).

Like-named read-outs stand apart in the source and are kept apart here.

Data set [1] has as its system cGAS-STING signalling pathway. Description: Stimulation of human sarcoma cell lines with cGAS, STING and RIG-I agonists, cytokine secretion. In kind it is cell-based. As for the experimental part:
For stimulation in vitro, 30,000 or 60,000 cells were seeded per well in a 24-well plate one day prior to stimulation. Cells were stimulated by transfection using Lipofectamine 2000 transfection reagent (Invitrogen, Cat#: 11668019) combined with the following agents: 2 μg/mL HT-DNA (Sigma-Aldrich, Cat#: D6898), 8 μg/mL 2′3′-cGAMP (Invivogen, Cat#: tlrl-nacga23-5), and 40 ng/ml Poly(I:C)-LMW (Invivogen, Cat#: tlrl-picw). An untreated control and a lipofectamine 2000 control were included. All samples were run in biological duplicates or triplicates. […]
Supernatants from cells stimulated with HT-DNA and Poly(I:C) were analyzed for Interferonβ (IFNβ), CXCL10 and IL-6 using Meso Scale Discovery multiplex Enzyme-linked Immunosorbent assay.
Supernatants from cells stimulated with 2′3′-cGAMP were analyzed for CXCL10 and IL-6 using sandwich ELISA (RnD Systems, Cat#: DY299 and Cat#: DY206). CCL5 content in supernatants from cells stimulated with HT-DNA and Poly(I:C) were analyzed using sandwich ELISA (RnD Systems, Cat#: DY278). […]
Functional type I IFN in supernatants from cells stimulated with 2′3′-cGAMP was quantified using a type I interferon reporter cell assay (HEK-Blue IFN-α/β) (Invivogen, Cat#: hkb-ifnab) according to manufacturer's guidelines. […] The concentration of type I IFN was determined from a standard curve of IFN-a (PBL Assay Science, Cat#: 11100-1). […]

A further data set concerns STING. The experiment in a line: Cytokine gene expression (qPCR) in STING-reactivated SW872 after doxorubicin treatment. In kind it is cell-based, human. The settings on record: SW872 after CRISPRa targeting STING (sgRNA #4 + dCas9-VPR mRNA), doxorubicin at IC50, 48 hrs. As for the experimental part:
For each sample 500,000 cells were resuspended in PBS, spun down at 300 xG for 5 minutes at room temperature (RT) and resuspended in 17 μL opti-MEM (Gibco, Cat#: 31985070). 1.9 μL of dCas9-VPR mRNA (Horizon Discovery, Cat#: CAS12211) and 1 μg of sgRNA was added. The cell suspension was added to an electroporation strip and electroporated on a Lonza 4D nucleofector using pulse code CM138. Afterwards, the electroporation strip containing the cells was left for 3 minutes on the bench top to allow cells to reform. The samples were diluted in preheated DMEM complete and 60,000 wt cells and 120,000 mock and STING+ cells were seeded in a 12-well plate one day prior to doxorubicin treatment to allow cells to adhere.
(§1) Wt, mock and STING+ cells were treated with IC50 values of doxorubicin in biological triplicates (IC50 for wt: 0.5 μM and IC50 for mock and STING+: 0.3 μM) and left for 48 hrs before harvest.
RNA from cells was purified using NucleoSpin RNA for the isolation of total RNA (Macherey-Nagel, Cat#: 740984.250M) according to manufacturer's guidelines. cDNA was synthesized using iScript cDNA Synthesis Kit (Bio-Rad, Cat#: 1708891) according to manufacturer's guidelines using 400ng of RNA. Real-time PCR was carried out using 1 μL of 10 ng/μL cDNA in a total volume of 10 μL using KAPA SYBR FAST (Roche, Cat#: KK4611) and the following targets and primers: […]
Samples were run in biological triplicates and technical duplicates on a 384 well plate (Hounisen, Cat#: 72.1985.202). The analysis was performed using the LightCycler 480 software version LCS480 1.5.1.62(Roche).
The cancer cell line SW872 was electroporated with dCas9-VPR mRNA and either nothing (mock) or sgRNA #4 and after additional 24 hrs each cell condition was exposed to the anthracycline chemotherapy drug doxorubicin. Doxorubicin's mode-of-action is to increase DNA damage leakage and this has shown to induce a STING-dependent immune response in conjunction to the cellular toxicity is has on cancer cells.
Supernatants were collected 48 hrs after doxorubicin treatment and immune activation was assessed by qPCR (FIG. 8A-E).

The subject of a further data set is SW872. Description: Doxorubicin IC50 viability determination (CellTiter 96 AQueous One Solution Cell Proliferation Assay). In kind it is cell-based. Particulars: Homo sapiens, SW872, 48 h, 48 hrs of treatment, read-out: IC50 viability concentration. The method, then:
Prior to analysing the immunological reponse to doxorubicin treatment (Sigma-Aldrich, Cat#: D1515-10 MG), and IC50 viability concentration was determined for both wt cells and electroporated cells (mock and STING+). A two-fold dilution of doxorubicin including 10 different dilutions ranging from 16 μM to 0.03125 μM was added to a cell culture and viability was determined using CellTiter 96 AQueous One Solution Cell Proliferation Assay (Promega, Cat#: G3580) after 48 hrs of treatment.
as §1

In a further data set the test system is human STING gene. Description: CRISPR activation of STING in SW872, STING expression by immunoblotting and qPCR. It is filed as cell-based. Particulars: SW872, electroporated with dCas9-VPR mRNA, 48 hours. From the text:
To upregulate STING, CRISPR activation technique was used. Synthetic guideRNAs (sgRNAs) are used to guide a deactivated Cas9 (dCas9) to a site in the vicinity of the transcriptional start site of STING. Attached to the dCas9 are three transcription activators (VP64, Rta, p65; collectively termed VPR), which can activate transcription of the target gene. The dCas9-VPR is delivered as mRNA and is translated by the translation apparatus in the host cell.
To test the ability of the individual sgRNAs to upregulate STING expression, each sgRNA was tested individually as well as all 5 sgRNAs together in the human sarcoma cell line SW872 or HT1080. The sequence of the DNA binding part of the 5 sgRNAs were the following:
sgRNAs were purchased from Synthego and comprise 2′-O-Methyl at the three first and last bases as well as 3′ phosphorothioate bonds between the first three and last two bases.
dCas9-VPR mRNA (SEQ ID NO: 29 as produced by in vitro transcription) (or purchased from Horizon Discovery, Cat#: CAS12211) comprises full substitution of uridine with pseudouridine and cotranscriptional capping with CleanCap AG in a 1:4 ratio between GTP and CleanCap.
For each sample 500,000 cells were resuspended in PBS, spun down at 300 xg for 5 minutes at room temperature (RT) and resuspended in 17 μL opti-MEM (Gibco, Cat#: 31985070). 1.9 μL of dCas9-VPR mRNA (Horizon Discovery, Cat#: CAS12211) (SEQ ID NO: 29) and 1 μg of sgRNA (1 μg of each sgRNA in the sample with all 5 sgRNAs) were added. The cell suspensions were added to an electroporation strip and electroporated on a Lonza 4D nucleofector using pulse code CM138. Afterwards, the electroporation strip containing the cells were left for 3 minutes on the bench top to allow cells to reform. The samples were diluted in preheated DMEM complete medium and cells were seeded at 50-100.000 cells per well in a 24-well plate and left for various days before harvest. […]

`Nc1nc2c(ncn2[C@@H]2O[C@@H]3COP(=O)(O)O[C@H]4[C@@H](O)[C@H](n5cnc6c(N)ncnc65)O[C@@H]4COP(=O)(O)O[C@@H]2[C@@H]3O)c(=O)[nH]1` [2′3′-cGAMP, 2′,3′-cyclic GMP-AMP]: the “cell responsiveness (secretion levels of IFNb, CXCL10, IL6 or CCL5)” value in data set [1] (SW872, 20-24 hours of activation) is on record as “not responding”.

In the case of `COc1cccc2c1C(=O)c1c(O)c3c(c(O)c1C2=O)C[C@@](O)(C(=O)CO)C[C@@H]3O[C@H]1C[C@H](N)[C@H](O)[C@H](C)O1` [doxorubicin], in the data set on STING, the “gene expression of CCL5” value is listed as “increased”, the “gene expression of CXCL10” value is on record as “increased” and the “gene expression of IFNb” value is recorded as “increased”. Also, the IC50 in the data set on SW872 (mock and STING+ (electroporated) SW872 cells) was determined as 0.3 µM. In addition, the IC50 with SW872 (wt SW872 cells) worked out at 0.5 µM.

Poly(I:C): in data set [1] (all four cell lines (HT-1080, SW872, SW982, SK-LMS1), 20-24 hours of activation), the “cell responsiveness (secretion levels of IFNb, CXCL10, IL6 or CCL5)” value was “responded”.

On to “sgRNA #4: sgRNA targeting human STING gene, DNA binding part CAGAAACCGGCAGGCUCUCU (listed as RNA, chemistry not fully specified)”, for which the “STING expression (immunoblotting, qPCR)” value is given as “equally or better than the combination of all five sgRNAs” with human STING gene, “highest activity” with human STING gene (listed as SEQ ID NO: 4) and “highest expression level” with human STING gene (listed as sgRNA#4).
